Measurements taken from patent US6495591B1, “Fungal efflux pump inhibitors” (Essential Therapeutics, Inc., priority 1997, dated 2002).
In brackets after ≈: the same amount, converted by molar mass. Like-named read-outs stand apart in the source and are kept apart here.

Assays:
[1] = tested on: S. cerevisiae YEM-39 overexpressing CgCDR (C. glabrata); experiment: microbe, parasite or virus in culture; assay type: cell-based; details: Saccharomyces cerevisiae
C. albicans, wt = experiment: MacSynergy 3-D synergy volume, checkerboard (Table 13); assay type: cell-based
From the text: (§1) The activity of one milbemycin was also studied in checker-board assays. […] It provides information on the extent of synergism between the two drugs and the concentrations at which synergism can be detected. Using differential surface analysis, pick of synergy volumes are quantified for each combination of drugs and strain tested in a traditional checkerboard assay (Table 13).

C. glabrata, wt = experiment: as above; assay type: cell-based
From the text: as §1

C. krusei [2] = experiment: as above; assay type: cell-based
From the text: as §1

C. albicans BEN up = experiment: as above; assay type: cell-based
From the text: as §1

[3] = tested on: C. albicans, CDR1, CDR2, up; assay type: cell-based
From the text: as §1

[4] = tested on: C. albicans ΔCDR1 ΔCDR2 ΔBEN ΔFLU1; assay type: cell-based
From the text: as §1

C. glabrata, CgCDR up = assay type: cell-based
From the text: as §1

[5] = tested on: S. cerevisiae YEM-1 overexpressing CDR1 (C. albicans); experiment: microbe, parasite or virus in culture; assay type: cell-based; details: Saccharomyces cerevisiae
[6] = tested on: C. albicans YEM-15 (CDR1 & CDR2 overexpressor); experiment: microbe, parasite or virus in culture; assay type: cell-based; details: Candida albicans
[7] = tested on: C. glabrata YEM-17 (CgCDR overexpressor); experiment: microbe, parasite or virus in culture; assay type: cell-based; details: Nakaseomyces glabratus
[8] = tested on: S. cerevisiae YEM-37 overexpressing CDR2 (C. albicans); experiment: microbe, parasite or virus in culture; assay type: cell-based; details: Saccharomyces cerevisiae
C. krusei YEM-71 = experiment: Broth dilution checkerboard, azoles and terbinafine with milbemycin α9 (Table 8); assay type: cell-based; details: Pichia kudriavzevii
[9] = tested on: C. albicans YEM-30 (wild-type, no pump deleted); experiment: microbe, parasite or virus in culture; assay type: cell-based; details: Candida albicans, read-out: MIC Flu alone
[10] = tested on: C. albicans YEM-24 (CDR1, CDR2 deleted); experiment: microbe, parasite or virus in culture; assay type: cell-based; details: Candida albicans, read-out: MIC Flu alone
[11] = tested on: C. glabrata YEM-18 (low level CgBEN and CgCDR expression); experiment: microbe, parasite or virus in culture; assay type: cell-based; details: YEM-18; fluconazole alone
[12] = tested on: C. albicans YEM-10 (low level CDR1 expressor); experiment: microbe, parasite or virus in culture; assay type: cell-based; details: Candida albicans, read-out: MIC Flu alone
[13] = tested on: C. albicans clinical isolates (n = 33); experiment: microbe, parasite or virus in culture; assay type: cell-based; details: Candida albicans
YEM 30 C. albicans wt = experiment: FEPI MIC with/without 1/8 fluconazole MIC at 24 hrs (Table 11); assay type: cell-based; details: Candida albicans, YEM 30
[14] = tested on: C. albicans YEM-12 (low level CDR1 expressor); experiment: microbe, parasite or virus in culture; assay type: cell-based; details: Candida albicans, read-out: MIC Flu alone
[15] = tested on: C. glabrata YEM-19 (CgCDR overexpression, higher than YEM-17); experiment: microbe, parasite or virus in culture; assay type: cell-based; details: YEM-19; fluconazole alone
YEM 51 C. glabrata wt = experiment: FEPI MIC with/without 1/8 fluconazole MIC at 24 hrs (Table 11); assay type: cell-based; details: Nakaseomyces glabratus; YEM 51; NCCLS criteria for azoles; read-out: FLU MIC
[16] = tested on: C. glabrata YEM-16 (low level CgBEN and CgCDR expression); experiment: microbe, parasite or virus in culture; assay type: cell-based; details: YEM-16; fluconazole alone
[17] = tested on: S. cerevisiae YEM-3 parent strain (no pump); experiment: microbe, parasite or virus in culture; assay type: cell-based; details: Saccharomyces cerevisiae, read-out: MIC for the parent strain to fluconazole
[18] = tested on: YEM 15 C. albicans, CDR1CDR2 up; experiment: microbe, parasite or virus in culture; assay type: cell-based; details: Candida albicans, read-out: FLU MIC
[19] = tested on: C. albicans YEM-21 (BEN deleted); experiment: microbe, parasite or virus in culture; assay type: cell-based; details: Candida albicans, read-out: MIC Flu alone
[20] = tested on: C. krusei YEM-52 (ATCC 90878), wild type; experiment: Broth dilution MIC, fluconazole with/without milbemycin oxime (Table 6); assay type: cell-based; details: Pichia kudriavzevii, ATCC90878; YEM-52 (ATCC 90878); read-out: MIC Flu alone
[21] = tested on: C. albicans YEM-20 (CDR1 deleted); experiment: microbe, parasite or virus in culture; assay type: cell-based; details: Candida albicans, read-out: MIC Flu alone
[22] = tested on: YEM 27 C. albicans ΔCDR1ΔCDR2 ΔBENΔFLU1; experiment: microbe, parasite or virus in culture; assay type: cell-based; details: Candida albicans, read-out: FLU MIC
C. lipolytica = experiment: microbe, parasite or virus in culture; assay type: cell-based; details: Yarrowia lipolytica, read-out: Fluconazole MIC, alone
[23] = tested on: C. albicans YEM-29 (BEN, FLU1 deleted); experiment: microbe, parasite or virus in culture; assay type: cell-based; details: Candida albicans, read-out: MIC Flu alone
[24] = tested on: C. albicans YEM-27 (CDR1, CDR2, BEN, FLU1 deleted); experiment: microbe, parasite or virus in culture; assay type: cell-based; details: Candida albicans, read-out: MIC Flu alone
YEM 53 C. krusei = experiment: FEPI MIC with/without 1/8 fluconazole MIC at 24 hrs (Table 11); assay type: cell-based; details: Pichia kudriavzevii; YEM 53; NCCLS criteria for azoles; read-out: FLU MIC
C. tropicalis = experiment: microbe, parasite or virus in culture; assay type: cell-based; details: Candida tropicalis, read-out: Fluconazole MIC, alone
[25] = tested on: C. glabrata clinical isolates (n = 12); experiment: microbe, parasite or virus in culture; assay type: cell-based; details: Nakaseomyces glabratus
C. neoformans = experiment: microbe, parasite or virus in culture; assay type: cell-based, Cryptococcus neoformans; details: Cryptococcus neoformans, read-out: Fluconazole MIC, alone
[26] = tested on: C. glabrata YEM-17 (CgCDR overexpressor); experiment: microbe, parasite or virus in culture; assay type: cell-based; details: YEM-17; fluconazole alone
[27] = tested on: pCgBEN (MF) efflux pump in S. cerevisiae YEM-40; assay type: cell-based, C. glabrata
[28] = tested on: YEM 13 C. albicans BEN up; experiment: microbe, parasite or virus in culture; assay type: cell-based; details: Candida albicans, read-out: FLU MIC
C. krusei [29] = experiment: microbe, parasite or virus in culture; assay type: cell-based; details: Pichia kudriavzevii, read-out: Fluconazole MIC, alone
[30] = tested on: C. albicans YEM-14 (low level CDR1 expressor); experiment: microbe, parasite or virus in culture; assay type: cell-based; details: Candida albicans, read-out: MIC Flu alone
[31] = tested on: YEM 24 C. albicans ΔCDR1, ΔCDR2; experiment: microbe, parasite or virus in culture; assay type: cell-based; details: Candida albicans, read-out: FLU MIC
[32] = read-out: Fluconazole MIC90, alone

In the case of `CN(C/C=C/C#CC(C)(C)C)Cc1cccc2ccccc12` [Terbinafine, terbinafine], the MIC ([1]; read-out: Terbinafine MIC) is reported as 4 µg/mL (≈ 13.7 µM), the “Synergy Volume, terbinafine + one milbemycin (FEPI, not named)” value (C. albicans, wt) is reported as 2790 and the “Synergy Volume, terbinafine + one milbemycin (FEPI, not named)” value (C. glabrata, wt) is reported as 478. The “Synergy Volume, terbinafine + one milbemycin (FEPI, not named)” value (C. krusei [2]) was 1517, the “Synergy Volume, terbinafine + one milbemycin (FEPI, not named)” value (C. albicans BEN up) was 500 and the “Synergy Volume, terbinafine + one milbemycin (FEPI, not named)” value [3] was 1386. The “Synergy Volume, terbinafine + one milbemycin (FEPI, not named)” value [4] was 169, the “Synergy Volume, terbinafine + one milbemycin (FEPI, not named)” value (C. glabrata, CgCDR up) was 392 and the MIC ([5]; read-out: Terbinafine MIC) was 128 µg/mL (≈ 439 µM). The MIC ([6]; read-out: Terbinafine MIC) was 128 µg/mL (≈ 439 µM), the MIC ([7]; read-out: Terbinafine MIC) was 128 µg/mL (≈ 439 µM) and the MIC ([8]; read-out: Terbinafine MIC) was 2 µg/mL (≈ 6.86 µM). It also gave an MIC (C. krusei YEM-71; YEM71, read-out: Terbinafine MIC) of 128 µg/mL.
In the case of `OC(Cn1cncn1)(Cn1cncn1)c1ccc(F)cc1F` [Fluconazole, fluconazole, reference compound], the MIC [9] is reported as 0.5 µg/mL (≈ 1.63 µM), the MIC ([1]; read-out: Fluconazole MIC) is reported as 64 µg/mL (≈ 209 µM) and the MIC [10] is reported as 0.125 µg/mL (≈ 0.408 µM). The “Fluconazole MIC with 0 μg/ml milbemycin β1” value [11] was 8 µg/mL, the MIC [12] was 0.25 µg/mL (≈ 0.816 µM) and the MIC50 ([13]; read-out: Fluconazole MIC50, alone, C. albicans n = 33, MIC (80%) in YPD) was 1 µg/mL (≈ 3.27 µM). For the same molecule, the MIC90 [13, 32] was > 128 µg/mL, the MIC (YEM 30 C. albicans wt; read-out: FLU MIC at 40 hrs, read at 40 hrs) was 64 µg/mL (≈ 209 µM) and the MIC (YEM 30 C. albicans wt; read at 24 hours, read-out: FLU MIC at 24 hours) was 0.5 µg/mL (≈ 1.63 µM). For the same molecule, the MIC [14] was 2 µg/mL (≈ 6.53 µM), the “Fluconazole MIC with 0 μg/ml milbemycin β1” value [15] was 128 µg/mL and the “Synergy Volume, fluconazole + one milbemycin (FEPI, not named)” value (C. krusei [2]) was 1178. The “Synergy Volume, fluconazole + one milbemycin (FEPI, not named)” value (C. albicans BEN up) was 196, the MIC (YEM 51 C. glabrata wt) was 64 µg/mL (≈ 209 µM) and the “Fluconazole MIC with 0 μg/ml milbemycin β1” value [16] was 16 µg/mL. The “Synergy Volume, fluconazole + one milbemycin (FEPI, not named)” value [3] was 2337, the “Synergy Volume, fluconazole + one milbemycin (FEPI, not named)” value [4] was 0.08 and the “Synergy Volume, fluconazole + one milbemycin (FEPI, not named)” value (C. glabrata, CgCDR up) was 1815. The MIC [17] was 0.5 µg/mL (≈ 1.63 µM), the MIC [18] was 64 µg/mL (≈ 209 µM) and the MIC [19] was 0.25 µg/mL (≈ 0.816 µM). It also gave an MIC ([5]; read-out: Fluconazole MIC) of 128 µg/mL (≈ 418 µM), an MIC [20] of 64 µg/mL (≈ 209 µM) and an MIC [21] of 0.125 µg/mL (≈ 0.408 µM). The MIC [22] was ≤ 0.125 µg/mL, the MIC (C. lipolytica) was 128 µg/mL (≈ 418 µM) and the MIC [23] was 0.25 µg/mL (≈ 0.816 µM). For the same molecule, the MIC [24] was 0.03 µg/mL (≈ 0.098 µM), the MIC ([6]; read-out: Fluconazole MIC) was 128 µg/mL (≈ 418 µM) and the MIC ([7]; read-out: Fluconazole MIC) was 128 µg/mL (≈ 418 µM). For the same molecule, the MIC ([8]; read-out: Fluconazole MIC) was 4 µg/mL (≈ 13.1 µM), the MIC (YEM 53 C. krusei) was 64 µg/mL (≈ 209 µM) and the MIC (C. tropicalis) was > 128 µg/mL. For the same molecule, the MIC50 ([25]; read-out: Fluconazole MIC50, alone) was 32 µg/mL (≈ 104 µM), the MIC90 [25, 32] was > 128 µg/mL and the MIC (C. neoformans) was > 128 µg/mL. For the same molecule, the MIC (C. krusei YEM-71; YEM71, read-out: Fluconazole MIC) was 128 µg/mL, the “Fluconazole MIC with 0 μg/ml milbemycin β1” value [26] was 64 µg/mL and the Fluconazole MIC [27] was 32 µg/mL. For the same molecule, the MIC [28] was 64 µg/mL (≈ 209 µM), the MIC (C. krusei [29]) was 128 µg/mL (≈ 418 µM) and the MIC [30] was 0.125 µg/mL (≈ 0.408 µM). For the same molecule, the MIC [31] was 0.25 µg/mL (≈ 0.816 µM).
